Data from publication PMC6691788, “Design and synthesis of phthalazine-based compounds as potent anticancer agents with potential antiangiogenic activity via VEGFR-2 inhibition” (Journal of Enzyme Inhibition and Medicinal Chemistry, 2019).

Tests used:
Experiment in all cases: NCI 60 cell panel SRB screen
[1] = test system: SR; type: cell-based; conditions: Homo sapiens
[2] = test system: KM12; type: cell-based; conditions: Homo sapiens
[3] = test system: HL-60(TB); type: cell-based; conditions: Homo sapiens
[4] = test system: DU-145; type: cell-based; conditions: Homo sapiens
[5] = test system: HT29; type: cell-based; conditions: Homo sapiens, HT-29
[6] = test system: UACC-62; type: cell-based
[7] = test system: BT-549; type: cell-based; conditions: Homo sapiens
[8] = test system: HCT-15; type: cell-based; conditions: Homo sapiens
[9] = test system: COLO 205; type: cell-based; conditions: Homo sapiens
[10] = test system: SW-620; type: cell-based; conditions: Homo sapiens
[11] = test system: IGROV1; type: cell-based; conditions: Homo sapiens, IGROV-1
[12] = test system: HS 578T; type: cell-based; conditions: Homo sapiens
[13] = test system: HCT-116; type: cell-based; conditions: Homo sapiens
[14] = test system: RXF 393; type: cell-based; conditions: Homo sapiens
[15] = test system: M14; type: cell-based; conditions: Homo sapiens
[16] = test system: MOLT-4; type: cell-based; conditions: Homo sapiens, MOLT-4, 5 log dose
[17] = test system: OVCAR-5; type: cell-based; conditions: Homo sapiens
[18] = test system: NCI-H322M; type: cell-based; conditions: Homo sapiens
[19] = test system: A498; type: cell-based; conditions: Homo sapiens
[20] = test system: CAKI-1; type: cell-based, human
[21] = test system: 786-0; type: cell-based; conditions: Homo sapiens
[22] = test system: SNB-75; type: cell-based; conditions: Homo sapiens
[23] = test system: TK-10; type: cell-based, human
[24] = test system: MALME-3M; type: cell-based; conditions: Homo sapiens
[25] = test system: U251; type: cell-based; conditions: Homo sapiens, U-251
[26] = test system: SK-MEL-28; type: cell-based; conditions: Homo sapiens
[27] = 5 log dose, 48 h, read-out: LC50 (the source's name)
[28] = single dose 10 μM, read-out: percent cell growth promotion

For `O=C(Nc1ccccc1)Nc1ccc(Oc2nnc(Cl)c3ccccc23)cc1` [Compound 13a, 1–(4-(4-Chlorophthalazin-1-yloxy)phenyl)-3-phenylurea], the GI50 ([1]; 5 log dose) was 1.93 µM, the IC (TGI) ([1]; 5 log dose) was 8.26 µM and the CC50 [1, 27] was greater than 25 µM. It also gave an activity at 10 µM [1, 28] of 18%, a GI50 ([2]; KM12, 5 log dose) of 5.51 µM and an IC (TGI) ([2]; KM12, 5 log dose) greater than 25 µM. The CC50 ([2]; KM12, 5 log dose, 48 h, read-out: LC50 (the source's name)) was greater than 25 µM, the activity at 10 µM ([2]; KM12, single dose 10 μM, read-out: percent cell growth promotion) was 43.6% and the GI50 ([3]; 5 log dose) was 2.7 µM. It also gave an IC (TGI) ([3]; 5 log dose) greater than 25 µM, a CC50 [3, 27] greater than 25 µM and an activity at 10 µM [3, 28] of 12.1%. For the same compound, the GI50 ([4]; DU-145, 5 log dose) was 3.01 µM, the IC (TGI) ([4]; DU-145, 5 log dose) was 10.5 µM and the CC50 ([4]; DU-145, 5 log dose, 48 h, read-out: LC50 (the source's name)) was greater than 25 µM. The activity at 10 µM ([4]; DU-145, single dose 10 μM, read-out: percent cell growth promotion) was 39%, the GI50 ([5]; HT29, 5 log dose) was 5.26 µM and the IC (TGI) ([5]; HT29, 5 log dose) was greater than 25 µM. The CC50 ([5]; HT29, 5 log dose, 48 h, read-out: LC50 (the source's name)) was greater than 25 µM, the activity at 10 µM ([5]; HT29, single dose 10 μM, read-out: percent cell growth promotion) was 23.8% and the GI50 ([6]; Homo sapiens, UACC-62) was 6.84 µM. It also gave an activity at 10 µM ([6]; Homo sapiens, UACC-62, read-out: percent cell growth promotion) of 41.3%, a CC50 ([6]; Homo sapiens, UACC-62, 5 log dose, 48 h, read-out: LC50 (the source's name)) greater than 25 µM and a TGI ([6]; UACC-62, 5 log dose) greater than 25 µM. The GI50 ([7]; BT-549) was 3.06 µM, the IC (TGI) ([7]; BT-549, read-out: TGI) was 10.8 µM and the activity at 10 µM ([7]; BT-549, read-out: percent cell growth promotion) was 47.7%. The CC50 ([7]; BT-549, 5 log dose, 48 h, read-out: LC50 (the source's name)) was greater than 25 µM, the GI50 ([8]; HCT-15, 5 log dose) was 3.54 µM and the IC (TGI) ([8]; HCT-15, 5 log dose) was 12.9 µM. It also gave a CC50 ([8]; HCT-15, 5 log dose, 48 h, read-out: LC50 (the source's name)) greater than 25 µM, an activity at 10 µM ([8]; HCT-15, single dose 10 μM, read-out: percent cell growth promotion) of 36.4% and a GI50 ([9]; COLO 205, 5 log dose) of 5.24 µM. The IC (TGI) ([9]; COLO 205, 5 log dose) was greater than 25 µM, the CC50 ([9]; COLO 205, 5 log dose, 48 h, read-out: LC50 (the source's name)) was greater than 25 µM and the activity at 10 µM ([9]; COLO 205, single dose 10 μM, read-out: percent cell growth promotion) was 35.1%. The GI50 ([10]; SW-620, 5 log dose) was 8.41 µM, the IC (TGI) ([10]; SW-620, 5 log dose) was greater than 25 µM and the CC50 ([10]; SW-620, 5 log dose, 48 h, read-out: LC50 (the source's name)) was greater than 25 µM. It also gave an activity at 10 µM ([10]; SW-620, single dose 10 μM, read-out: percent cell growth promotion) of 73.4%, a GI50 ([11]; IGROV1, 5 log dose) of 3.32 µM and an IC (TGI) ([11]; IGROV1, 5 log dose) of 7.92 µM. It also gave a CC50 ([11]; IGROV1, 5 log dose, 48 h, read-out: LC50 (the source's name)) of 18.9 µM, an activity at 10 µM ([11]; IGROV1, single dose 10 μM, read-out: percent cell growth promotion) of 37.2% and a GI50 ([12]; Hs-578T) of 2.12 µM. The IC (TGI) ([12]; Hs-578T, read-out: TGI) was 10.4 µM, the activity at 10 µM ([12]; Hs-578T, read-out: percent cell growth promotion) was 1.19% and the CC50 ([12]; HS 578T, 5 log dose, 48 h, read-out: LC50 (the source's name)) was greater than 25 µM. It also gave a GI50 ([13]; HCT-116, 5 log dose) of 3.06 µM, an IC (TGI) ([13]; HCT-116, 5 log dose) of 9.77 µM and an LC50 (lethal concentration 50%) ([13]; HCT-116, 5 log dose, 48 h) greater than 25 µM. For the same compound, the activity at 10 µM ([13]; HCT-116, single dose 10 μM, read-out: percent cell growth promotion) was 10.6%, the GI50 ([14]; RXF 393, 5 log dose) was 2.69 µM and the IC (TGI) ([14]; RXF 393, 5 log dose) was 6.24 µM. It also gave a CC50 ([14]; RXF 393, 5 log dose, 48 h, read-out: LC50 (the source's name)) of 14.5 µM, an activity at 10 µM ([14]; RXF 393, single dose 10 μM, read-out: percent cell growth promotion) of -3.63% and a GI50 ([15]; M14) of 6.15 µM. For the same compound, the IC (TGI) ([15]; M14, read-out: TGI) was greater than 25 µM, the activity at 10 µM ([15]; M14, read-out: percent cell growth promotion) was 46.2% and the CC50 ([15]; M14, 5 log dose, 48 h, read-out: LC50 (the source's name)) was greater than 25 µM. It also gave a GI50 [16] of 2.6 µM, an IC (TGI) [16] of 11.4 µM and a CC50 ([16]; 48 h, read-out: LC50 (the source's name)) greater than 25 µM. The GI50 ([17]; OVCAR-5, 5 log dose) was 5.61 µM, the IC (TGI) ([17]; OVCAR-5, 5 log dose) was 15.3 µM and the CC50 ([17]; OVCAR-5, 5 log dose, 48 h, read-out: LC50 (the source's name)) was greater than 25 µM. The activity at 10 µM ([17]; OVCAR-5, single dose 10 μM, read-out: percent cell growth promotion) was 86.3%, the GI50 ([18]; 5 log dose) was 2.19 µM and the IC (TGI) ([18]; 5 log dose) was greater than 25 µM. For the same compound, the CC50 [18, 27] was greater than 25 µM, the activity at 10 µM [18, 28] was 47.3% and the GI50 ([19]; A498, 5 log dose) was 3.45 µM. For the same compound, the IC (TGI) ([19]; A498, 5 log dose) was 13.1 µM, the CC50 ([19]; A498, 5 log dose, 48 h, read-out: LC50 (the source's name)) was greater than 25 µM and the activity at 10 µM ([19]; A498, single dose 10 μM, read-out: percent cell growth promotion) was 49.2%. For the same compound, the TGI ([20]; CAKI-1, 5 log dose) was 14.3 µM, the GI50 ([20]; Homo sapiens, CAKI-1, 5 log dose) was 3.34 µM and the CC50 ([20]; Homo sapiens, CAKI-1, 5 log dose, 48 h, read-out: LC50 (the source's name)) was greater than 25 µM. For the same compound, the activity at 10 µM ([20]; Homo sapiens, CAKI-1, single dose 10 μM, read-out: percent cell growth promotion) was 84.4%, the GI50 ([21]; 786-0, 5 log dose) was 3.6 µM and the IC (TGI) ([21]; 786-0, 5 log dose) was 8.18 µM. For the same compound, the CC50 ([21]; 786-0, 5 log dose, 48 h, read-out: LC50 (the source's name)) was 18.6 µM, the activity at 10 µM ([21]; 786-0, single dose 10 μM, read-out: percent cell growth promotion) was 38.2% and the GI50 ([22]; SNB-75, 5 log dose) was 1.08 µM. It also gave an IC (TGI) ([22]; SNB-75, 5 log dose) of 5.9 µM, an LC50 (concentration killing 50% of cells) ([22]; SNB-75, 5 log dose, 48 h) of 21.3 µM and an activity at 10 µM ([22]; SNB-75, single dose 10 μM, read-out: percent cell growth promotion) of -42%. For the same compound, the GI50 ([23]; Homo sapiens, TK-10, 5 log dose) was 6.08 µM, the CC50 ([23]; Homo sapiens, TK-10, 5 log dose, 48 h, read-out: LC50 (the source's name)) was greater than 25 µM and the activity at 10 µM ([23]; Homo sapiens, TK-10, single dose 10 μM, read-out: percent cell growth promotion) was 25.3%. For the same compound, the TGI ([23]; TK-10, 5 log dose) was 14.9 µM, the GI50 ([24]; Malme-3M) was 1.62 µM and the IC (TGI) ([24]; Malme-3M, read-out: TGI) was 5.93 µM. It also gave an activity at 10 µM ([24]; Malme-3M, read-out: percent cell growth promotion) of -29.6%, a CC50 ([24]; MALME-3M, 5 log dose, 48 h, read-out: LC50 (the source's name)) of 16 µM and a GI50 ([25]; U251, 5 log dose) of 2.14 µM. It also gave an IC (TGI) ([25]; U251, 5 log dose) of 5.2 µM, a CC50 ([25]; U251, 5 log dose, 48 h, read-out: LC50 (the source's name)) of 11.4 µM and an activity at 10 µM ([25]; U251, single dose 10 μM, read-out: percent cell growth promotion) of 4.84%. The GI50 ([26]; SK-MEL-28) was 3.57 µM, the IC (TGI) ([26]; SK-MEL-28, read-out: TGI) was 12.7 µM and the activity at 10 µM ([26]; SK-MEL-28, read-out: percent cell growth promotion) was 44.2%. The CC50 ([26]; SK-MEL-28, 5 log dose, 48 h, read-out: LC50 (the source's name)) was greater than 25 µM.
